Source: patent US10160771B2, “Hepatitis C virus inhibitors and uses thereof in preparation of drugs” (priority 2014, dated 2018)

What was measured:
[1] = test system: HCV genotype 1b (HCV-1b) replicon cells; experiment: HCV genotype 1b replicon luciferase assay (EC50); format: cell-based, hepatitis C virus genotype 1b (Con1 clone); conditions: Hepatitis C virus, 72 h, 3 days, luciferase (Bright-Glo)
Procedure, shortened: (§1)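 EC50 by nonlinear fitting of % inhibition from Bright-Glo luciferase signal after 3-day, 37° C. compound exposure (5-fold, 6 points from 100, 10 or 1 nM; 0.5% DMSO; duplicates). Cells: 1a replicon from H77 (K1691R/K2040R/S2204I) or 1b from Con1 (E1202G/T1280I/K1846T), 8000 per well.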

[2] = Cell Titer-fluor cell activity assay in HCV-1b replicon cells (CC50); format: cell-based
Description: The EC50 and CC50 values of anti-HCV compounds were determined by HCV genotype 1a (HCV-1a) and 1B (HCV-1b) stable transfer replication (replicon) cells. The source of genotype 1a replicon is H77 clones containing K1691R, K2040R and S2204I adaptive mutations. The source of genotype 1b replicon is Con1 clones containing E1202G, T1280I and K1846T adaptive mutations.
HCV Replicon Cell Lines: HCV-1a and HCV-1b Cells
The compound powder was dissolved in 100% DMSO. Then the compound was diluted 5 times with 6 points, and added into the cell plate with Echo liquid handler. Ensure the final concentration of DMSO was 0.5%. Each compound was tested in double holes. Maximum initial concentration was 100, 10 or 1 nM, 5 times dilution, 6 points.
b) Cell Culture (HCV-1a or HCV-1b Replicon Cell):
1) absorbing the culture supernatant of the cell culture and washing the cells with 10 mL PBS.
2) adding preheated pancreatin to the washed cell culture flasks, rotating culture bottle to make the bottom of the culture bottle uniformly covered by pancreatin, then placed into 37° C., 5% CO2 incubator to digest.
3) suspending cells in each T150 culture flask with 10-15 mL culture medium, absorbing 0.1 mL liquid and diluting 2 times by trypan blue solution as counted.
4) diluting cells to 8×10^4/mL with the culture medium, adding the diluted cells into the compound-containing 96-well plate (Greiner, Cat.#655090) (100 μL/well, 8000 cells/well) with automatic liquid separator (Thermo Scientific). Then place into a 37° C., 5% CO2 incubator for 3 days. Cell control well: no compound, only containing 0.5% DMSO.
5) adding chemiluminescent substrate Cell Titer-fluor to the cell well, after incubation for 30 minutes, detecting the signal by chemiluminescence detection system Envison (Ex at 405 nm and read at 515 nm). The effect of the compounds on the activity of HCV replicon cells was analyzed according to the luminescence data, which was used to calculate the CC50 values.
The EC50 or CC50 values were obtained by nonlinear fitting analysis on inhibition percentage (inh %) data with GraphPad Prism software.

[3] = test system: HCV genotype 1a (HCV-1a) replicon cells; experiment: HCV genotype 1a replicon luciferase assay (EC50); format: cell-based, hepatitis C virus genotype 1a (H77 clone); conditions: Hepatitis C virus, 72 h, 3 days, luciferase (Bright-Glo)
Procedure, shortened: as §1

| Compound | EC50 [1] | CC50 at 3 days [2] | EC50 [3] |
| --- | --- | --- | --- |
| COC(=O)N[C@H](C(=O)N1CCC[C@H]1c1ncc(-c2ccc(-c3ccc(-c4cnc([C@H]5CCCC[C@@H]5C(=O)NCc5ccc(Cl)nc5)[nH]4)cc3)cc2)[nH]1)C(C)C [AA_185] | 0.101 to 1 nM | > 5 nM | 10 to 100 nM |
| COC(=O)N[C@H](C(=O)N1CCC[C@H]1c1ncc(-c2ccc(-c3ccc(-c4cnc([C@H]5CCCC[C@@H]5C(=O)NC5(c6cccnc6)CC5)[nH]4)cc3)cc2)[nH]1)C(C)C [AA_186] | 0.101 to 1 nM | > 5 nM | 1 to 10 nM |
| COC(=O)N[C@H](C(=O)N1CCC[C@H]1c1ncc(-c2ccc(-c3ccc(-c4cnc(C5C6CCC(C6)[C@@H]5C(=O)N(NC(=O)OC)C(C)C)[nH]4)cc3)c(OC)c2)[nH]1)C(C)C (stereo partly drawn) [AA_190_A] | 0.101 to 1 nM | > 1 nM | 10 to 100 nM |
| COC(=O)N[C@H](C(=O)N1CCC[C@H]1c1ncc(-c2ccc(-c3ccc(-c4cnc(C5C6CCC(C6)[C@H]5C(=O)N(NC(=O)OC)C(C)C)[nH]4)cc3)c(OC)c2)[nH]1)C(C)C (stereo partly drawn) [AA_190_B] | 0.101 to 1 nM | > 1 nM | 10 to 100 nM |
| COC(=O)NC(C(=O)N1CCC[C@H]1c1ncc(-c2ccc(-c3ccc(-c4cnc(C5C6CCC(C6)[C@@H]5C(=O)NCc5cccnc5)[nH]4)cc3)cc2)[nH]1)C1CCOCC1 (stereo partly drawn) [AA_191] | 0.101 to 1 nM | > 1 nM | 1 to 10 nM |
| COC(=O)N[C@H](C(=O)N1CC2(C[C@H]1c1ncc(-c3ccc(-c4ccc(-c5cnc(C6C7CCC(C7)[C@H]6C(=O)NCc6cccnc6)[nH]5)cc4)cc3)[nH]1)OCCO2)C(C)C (stereo partly drawn) [AA_192_B] | 0.001 to 0.1 nM | > 1 nM | 1 to 10 nM |
| COC(=O)N[C@H](C(=O)N1CCC[C@H]1c1ncc(-c2ccc(-c3ccc(-c4cnc([C@@H]5C6CCC(C6)[C@H]5C(=O)NCCO)[nH]4)cc3)cc2)[nH]1)C(C)C (stereo partly drawn) [AA_193] | 0.001 to 0.1 nM | > 1 nM | 1 to 10 nM |
| COC(=O)N[C@H](C(=O)N1CCC[C@H]1c1ncc(-c2ccc(-c3ccc(-c4cnc([C@H]5C6CCC(C6)[C@@H]5C(=O)NCc5ccccc5N)[nH]4)cc3)cc2)[nH]1)C(C)C (stereo partly drawn) [AA_194] | 0.001 to 0.1 nM | > 1 nM | 10 to 100 nM |
| COC(=O)N[C@H](C(=O)N1CCC[C@H]1c1ncc(-c2ccc(-c3ccc(-c4cnc([C@H]5C6CCC(C6)[C@@H]5C(=O)N(C)c5ccccn5)[nH]4)cc3)cc2)[nH]1)C(C)C (stereo partly drawn) [AA_195_A] | 0.001 to 0.1 nM | > 1 nM | 0.101 to 1 nM |
| COC(=O)N[C@H](C(=O)N1CCC[C@H]1c1ncc(-c2ccc(-c3ccc(-c4cnc([C@@H]5C6CCC(C6)[C@H]5C(=O)N(C)c5ccccn5)[nH]4)cc3)cc2)[nH]1)C(C)C (stereo partly drawn) [AA_195_B] | 0.001 to 0.1 nM | > 1 nM | 1 to 10 nM |
| COC(=O)N[C@H](C(=O)N1CCC[C@H]1c1ncc(-c2ccc(-c3ccc(-c4cnc([C@@H]5[C@H]6CC[C@H](C6)[C@H]5C(=O)N(C)c5ccccn5)[nH]4)cc3)cc2)[nH]1)C(C)C [AA_195_ENDOA2] | 0.001 to 0.1 nM | > 1 nM | 0.101 to 1 nM |
| COC(=O)N[C@H](C(=O)N1CCC[C@H]1c1ncc(-c2ccc(-c3ccc(-c4cnc([C@H]5C6CCC(C6)[C@@H]5C(=O)NCc5cccs5)[nH]4)cc3)cc2)[nH]1)C(C)C (stereo partly drawn) [AA_196_A] | 0.001 to 0.1 nM | > 1 nM | 1 to 10 nM |
| COC(=O)N[C@H](C(=O)N1CCC[C@H]1c1ncc(-c2ccc(-c3ccc(-c4cnc([C@@H]5C6CCC(C6)[C@H]5C(=O)NCc5cccs5)[nH]4)cc3)cc2)[nH]1)C(C)C (stereo partly drawn) [AA_196_B] | 0.001 to 0.1 nM | > 1 nM | 10 to 100 nM |
| COC(=O)N[C@H](C(=O)N1CCC[C@H]1c1ncc(-c2ccc(-c3ccc(-c4cnc([C@H]5C6CCC(C6)[C@@H]5C(=O)NCc5cccnc5)[nH]4)cc3)c(F)c2)[nH]1)C(C)C (stereo partly drawn) [AA_197_A] | 0.001 to 0.1 nM | > 1 nM | 1 to 10 nM |
| COC(=O)N[C@H](C(=O)N1CCC[C@H]1c1ncc(-c2ccc(-c3ccc(-c4cnc([C@H]5C6CCC(C6)[C@@H]5C(=O)NCc5ccco5)[nH]4)cc3)cc2)[nH]1)C(C)C (stereo partly drawn) [AA_198_A] | 0.001 to 0.1 nM | > 1 nM | 1 to 10 nM |
